Assay results: patent US12527835B2, “Brevican-binding peptides for brain tumor imaging” (The Brigham and Women's Hospital, Inc., priority 2018, dated 2026)
Where a SMILES comes first, the peptide text is derived from it. [ ]: non-standard residue; d: D form.

Tests used:
[1] = target: T1, recombinant BΔg protein (deglycosylated brevican) (Homo sapiens, UniProt Q96GW7); assay: Octet steady state binding affinity to recombinant BΔg; details: steady state analysis, Octet RED, peptide up to 10 μM; read-out: KD (dissociation constant) to BΔg protein
T1 construct: purchased R&D Systems 4009-BC-050
T1 sequence (Q96GW7 23-911): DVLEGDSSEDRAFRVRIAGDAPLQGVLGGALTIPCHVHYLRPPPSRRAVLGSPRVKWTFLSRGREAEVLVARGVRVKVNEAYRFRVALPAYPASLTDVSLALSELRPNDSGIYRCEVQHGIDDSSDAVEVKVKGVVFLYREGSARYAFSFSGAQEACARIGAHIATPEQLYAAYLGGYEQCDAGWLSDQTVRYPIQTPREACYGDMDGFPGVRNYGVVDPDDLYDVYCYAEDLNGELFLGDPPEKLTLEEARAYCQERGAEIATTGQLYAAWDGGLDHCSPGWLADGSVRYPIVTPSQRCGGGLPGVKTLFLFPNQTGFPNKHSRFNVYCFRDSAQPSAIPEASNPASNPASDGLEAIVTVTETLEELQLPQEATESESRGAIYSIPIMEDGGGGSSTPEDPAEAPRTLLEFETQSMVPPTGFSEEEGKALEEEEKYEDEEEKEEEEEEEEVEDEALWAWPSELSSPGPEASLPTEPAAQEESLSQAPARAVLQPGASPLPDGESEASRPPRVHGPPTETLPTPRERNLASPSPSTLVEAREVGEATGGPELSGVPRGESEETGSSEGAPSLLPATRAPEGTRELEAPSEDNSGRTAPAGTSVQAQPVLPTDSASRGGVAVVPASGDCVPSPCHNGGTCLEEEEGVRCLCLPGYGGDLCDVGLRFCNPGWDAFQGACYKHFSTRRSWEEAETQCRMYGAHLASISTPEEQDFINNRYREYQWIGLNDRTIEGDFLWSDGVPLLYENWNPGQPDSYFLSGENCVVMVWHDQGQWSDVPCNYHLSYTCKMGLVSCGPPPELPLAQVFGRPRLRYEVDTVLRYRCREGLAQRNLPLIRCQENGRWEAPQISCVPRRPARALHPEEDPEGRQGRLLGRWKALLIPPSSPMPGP
Procedure: A ForteBio OctetRed384 instrument was used to study the binding kinetics of each peptide to recombinant human brevican (re-suspended in PBS and 0.1 mM EDTA, pH 6.8). The brevican protein was deglycosylated prior to experimental use in water+0.05% tween, PI, sialidase, 0-glycosidase, N-glycosidase in sodium acetate [200 mM], NaCl [250 mM], Tris-HCl [200 mM], pH 7.5.) in the presence of protease inhibitor overnight at 4° C. (this entire composition will be referred to as ‘de-glycosylation buffer’). […] The final volume for all the solutions was 80 μl/well. Assays were performed at 30° C. in solid black 384-well plates (Geiger Bio-One). Prior to beginning, Ni-NTA biosensors were soaked for 10 min in working buffer. Before loading the protein onto each biosensor, a baseline was established in working buffer for 60 s. Deglycosylated brevican (50 μg/ml BΔg; His-tagged) was loaded on the surface of each biosensors for 180 s. […] Reference biosensors were also included in the plate as internal controls, where biosensors were exposed to the ‘de-glycosylation buffer’ lacking brevican protein during the loading step. A 60 s biosensor washing step was applied. Then, biosensors were exposed to the analyte (peptide) in working buffer (ranging between 0-10 μM BTP) for 300 s during the ‘association’ step. Finally, the biosensors were exposed to working buffer (without peptide) during the ‘dissociation’ step for 600 s. Binding affinity of each peptide was assessed through steady state analysis, where the response unit was plotted over peptide concentration. All data was plotted and curves were fitted using the non-linear ‘one-site specific binding’ fit, and the dissociation constant (KD) value was calculated using the GraphPad Prism software.
Binding kinetics analyses were performed using the Octet RED platform (Forte Bio) to measure the binding affinity of BTP-7, 8 and 9 to purified recombinant BΔg protein.

BT188 glioma stem cells = assay: Peptide uptake in BT188 (BΔg-high) versus BT145 (BΔg-low) glioma stem cells, fluorescence imaging; type: cell-based, human; details: fluorescein-labeled peptides, 5 μM
From the text: FIGS. 3A-I. Peptide characterization for BΔg specificity in glioma stem cells. (a) Table summary listing the properties of 7 peptides (composed of 8 D-amino acid residues, SEQ ID NOs:3-9, in order of appearance) that were isolated from the OBOC library screen. MW=molecular weight; KD=Kyte-Doolittle scale for amino acid hydropathy (positive scores indicate […]) (Kyte and Doolittle, J. Mol. Biol. 157, 105-132 (1982)). (b) Chemical structure showing the linkage between the peptide and FITC. (c) Western blot analysis showing the level of BΔg and Bcan in human embryo kidney (HEK) cells, and Bcan-overexpressing HEK cells (HEK-Bcan). […] Each group was normalized to a no-blocking (vehicle) control. Statistics were performed using multiple t-tests, and significance was measured in comparison to each vehicle control (p<0.0001). (e) Uptake of fluorescein-labeled BTP-2, 7, 8, 9, and 10 (at 5 μM conc.) in BT188 (BΔg-high) or BT145 (BΔg-low) glioma stem cells (GSCs). Western blot analysis on the top right confirms the BΔg expression level. […] Statistics were performed using the two-way ANOVA and Tukey's Multiple Comparison test. (f) Chemical structure showing the linkage between the peptide and Cy5.5 dye. (g) Western blot analysis showing the expression of BΔg in GBM-6 cells, with negligible BΔg level in astrocytes or neural progenitor cells (NPC). (h) Graph showing the cell uptake ranking of the top 3 peptide candidates, BTP-7, 8 and 9 in GBM-6 cells as determined by flow cytometry analysis with s.d. error bars (5 μM conc.; nevents=20,000 cells; nexperiment=5). Each group is normalized to the control scramble peptide (Scr-8). Statistics were performed using the one-way ANOVA and Tukey's Multiple Comparison test (significance were measured in comparison to the Scr-8 control). (i) Bar graph showing the uptake of BTP-7, 8 and 9 in GBM-6 cells and NPC with 95% confidence interval error bars (1 μM conc.; nevents=20,000 cells). Statistics were performed using the two-way ANOVA and Sidak's Multiple Comparison test.

## CC[C@@H](C)[C@@H](NC(=O)[C@H](N)[C@H](C)O)C(=O)N[C@H](CCCNC(=N)N)C(=O)N[C@H](CCCCN)C(=O)N[C@H](CC(C)C)C(=O)N[C@@H](C(=O)N[C@H](CCCNC(=N)N)C(=O)N[C@H](Cc1c[nH]cn1)C(N)=O)C(C)C [BTP-8] (H-[dT][dI][dR][dK][dL][dV][dR][dH]-NH2; N-terminus and C-terminus assumed)
[1]
  Kd: 1570 nM
BT188 glioma stem cells
  size of the difference in uptake between BT188 and BT145 GSCs (ranking): largest and most significant difference
  uptake in BT188 GSCs compared with BT145 GSCs: greater uptake
